Results taken from patent publication US20160009697A1, “PYRIDINE DERIVATIVES AS 5-HT6 RECEPTOR ANTAGONISTS” (Selvita S.A., priority 2013, published 2016).

Assays:
human 5-HT6 [1] = molecular target: T1, human 5-HT6 (Homo sapiens, UniProt P50406); experiment: 5-HT6 functional assay (calcium response, Chem-10 host cells); type: cell-based; set-up: host or cells: Chem-10 host cells, co-expressing a recombinant promiscuous G protein; conditions: agonist serotonin, 30 min preincubation, Fluo-4NW calcium, read-out: 5-HT6 antagonist Kb
Source text: The serotonin receptor 5-HT6 is a Gs coupled receptor. In the brain it responds to serotonin and other agonists by increasing adenyl cyclase mediated production of cyclic AMP. 5-HT6 can be also functionally tested using different coupling types. Millipore's cloned human 5-HT6-expressing cell line is made in the Chem-10 host, which supports high levels of recombinant 5-HT6 expression on the cell surface and contains optimized levels of a recombinant promiscuous G protein to couple the receptor to the calcium signaling pathway. Cells were thawed, resuspended in media, dispensed into 96-well assay plates at a density of 27500 cells per well and, following over night recovery, assayed for calcium response. Tests were performed using Fluo-4NW Calcium Assay Kit (Molecular Probes #F36206) and standard testing procedure for this kit. Cells were preincubated with test compound for 30 min, then endogenous agonists serotonin was added. Fluorescence was measured by FLEXstation 3 (Molecular Devices). The apparent dissociation constants (Kb) were calculated by means of GraphPhad Prism 5 software using the modified Cheng Prusoff equation (Kb=IC50/(1+(A/EC50A)), where A=concentration of reference agonist in the assay and EC50A=EC50 value of the reference agonist). For each IC50 determination, agonist dose response curve is run in parallel with the antagonist, on the same experimental plate. Curves maximal and minimal values should be reached in assays and it is checked if Prism uses proper maximal and minimal values for curve fitting.

[2] = molecular target: T2, short form of human D2 receptor (Homo sapiens, UniProt P14416); experiment: D2 functional assay (cAMP-Glo, CHO cells); type: cell-based; conditions: forskolin 10 μM, read-out: D2 antagonist Kb
T2 construct: expressed in transfected cells; host or cells: CHO cells
Description: Dopamine D2 receptor inhibits adenylyl cyclase activity. CHO cells (Chinese Hamster Ovary cell-line) transfected with short form of human D2 receptor were used for D2 functional testing. Cells were seeded at a density of 10 000 cells/well in white-walled 96-well plates one day before the experiment. Forskolin at 10 μM was used to increase the intracellular level of cAMP. Compounds were tested according to the procedure from cAMP-Glo™ kit manufacturer's instruction.

human H1 receptor = molecular target: T3, human H1 receptor (Homo sapiens, UniProt P35367); experiment: H1 functional assay (calcium response, CHO cells); type: cell-based; conditions: agonist histamine, 30 min preincubation, Fluo-4NW calcium, read-out: H1 antagonist Kb
T3 construct: expressed in transfected cells; host or cells: CHO cells
Source text: (§1) The histamine receptor H1 is linked to an intracellular G-protein (Gq) that activates phospholipase C and the phosphatidylinositol (PIP2) signaling pathway. The pathway starts with stimulation of the receptor and further activation of phospholipase C (PLC). Inositol-1,4,5-triphosphate (IP3), which is one of the products of PLC activity, binds to IP3 receptor in smooth ER. Opening of IP3R, which acts as a calcium ion channel, causes an increase in Ca^2+ concentration in the cytosol, which can be quantitatively measured using calcium-sensitive fluorescent dyes.
H1 antagonism was measured in CHO cells (Chinese Hamster Ovary cell-line) transfected with pcDNA for human H1 receptor. Cells were dispensed into 96-well assay plates at a density of 25 000-30 000 cells per well and, following over night recovery, assayed for calcium response. Tests were performed using Fluo-4NW Calcium Assay Kit (Molecular Probes #F36206) and standard testing procedure for this kit. Cells were preincubated with test compound for 30 min, then endogenous agonist histamine was added. Fluorescence was measured by FLEXstation 3 (Molecular Devices). The apparent dissociation constants (Kb) were calculated by means of GraphPhad Prism 5 software using the modified Cheng Prusoff equation (Kb=IC50/(1+(A/EC50A)), where A=concentration of reference agonist in the assay and EC50A=EC50 value of the reference agonist). For each IC50 determination, agonist dose response curve is run in parallel with the antagonist, on the same experimental plate. Curves maximal and minimal values should be reached in assays and it is checked if Prism uses proper maximal and minimal values for curve fitting.

human alpha1 receptor = experiment: Alpha1 functional assay (calcium response, LNCaP cells); type: cell-based; conditions: agonist noradrenaline, 30 min preincubation, Fluo-4NW calcium, read-out: Alpha1 antagonist Kb
Source text: as §1, with “alpha-1 (α1) adrenergic” for “histamine”, “receptor” for “receptor H1”, “coupled” for “linked”, “the Gq heterotrimeric” for “an intracellular”, “G-protein” for “G-protein (Gq)”, “in” for “in the”
Alpha1 antagonism was measured in LNCaP (Human lymph node carcinoma of the prostate) cells expressing human alpha1 receptor. Cells were dispensed into 96-well assay plates at a density of 30 000 cells per well and, following over night recovery, assayed for calcium response. Tests were performed using Fluo-4NW Calcium Assay Kit (Molecular Probes #F36206) and standard testing procedure for this kit. Cells were preincubated with test compound for 30 min, then endogenous agonist noradrenaline was added. Fluorescence was measured by FLEXstation 3 (Molecular Devices). The apparent dissociation constants (Kb) were calculated by means of GraphPhad Prism 5 software using the modified Cheng Prusoff equation (Kb=IC50/(1+(A/EC50A)), where A=concentration of reference agonist in the assay and EC50A=EC50 value of the reference agonist). For each IC50 determination, agonist dose response curve is run in parallel with the antagonist, on the same experimental plate. Curves maximal and minimal values should be reached in assays, and it is checked if Prism uses proper maximal and minimal values for curve fitting.

D2 receptor = molecular target: T4, D2 receptor (Homo sapiens, UniProt P14416); experiment: Dopamine receptor D2 binding affinity, competitive radioligand binding with [3H]methyl-spiperone; conditions: membranes of recombinant cells, [3H]methyl-spiperone 0.2 nM, 60 min at 37° C.
T4 construct: expressed in transfected cells; membrane homogenates
Description: Dopamine receptor D2 binding affinity of compounds of formula I was also evaluated. […] After a 60 minute incubation at 37° C., the incubation was terminated by vacuum filtration. The filters were washed with buffer and the filters were counted for radioactivity using liquid scintillation spectrometry. Concentrations ranging from 10^−12 M to 10^−5 M of the test compound were evaluated. […] Binding in the presence of varying concentrations of test compound is expressed as a percentage of specific binding in the absence of test compound. The results are plotted as log % bound versus log concentration of test compound. […] A linear regression line of data points is plotted, from which the IC50 value is determined and the Ki value is determined based upon the following equation: […]

human 5-HT6 [3] = molecular target: T1, human 5-HT6; experiment: 5-HT6 binding affinity, competitive radioligand binding with [3H]-LSD

T2 sequence (P14416 1-414 isoform P14416-2): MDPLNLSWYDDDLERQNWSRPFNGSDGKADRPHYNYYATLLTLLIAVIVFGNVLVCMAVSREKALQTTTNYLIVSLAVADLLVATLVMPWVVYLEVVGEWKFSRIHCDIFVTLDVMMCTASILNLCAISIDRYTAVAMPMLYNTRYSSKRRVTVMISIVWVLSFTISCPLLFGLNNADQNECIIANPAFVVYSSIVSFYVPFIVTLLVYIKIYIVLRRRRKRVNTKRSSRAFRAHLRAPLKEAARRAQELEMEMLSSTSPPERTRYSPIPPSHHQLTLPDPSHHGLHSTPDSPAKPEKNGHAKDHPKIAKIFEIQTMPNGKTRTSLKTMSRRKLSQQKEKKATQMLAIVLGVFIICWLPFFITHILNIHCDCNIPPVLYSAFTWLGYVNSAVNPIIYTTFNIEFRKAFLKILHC
T1 sequence (P50406 whole entry): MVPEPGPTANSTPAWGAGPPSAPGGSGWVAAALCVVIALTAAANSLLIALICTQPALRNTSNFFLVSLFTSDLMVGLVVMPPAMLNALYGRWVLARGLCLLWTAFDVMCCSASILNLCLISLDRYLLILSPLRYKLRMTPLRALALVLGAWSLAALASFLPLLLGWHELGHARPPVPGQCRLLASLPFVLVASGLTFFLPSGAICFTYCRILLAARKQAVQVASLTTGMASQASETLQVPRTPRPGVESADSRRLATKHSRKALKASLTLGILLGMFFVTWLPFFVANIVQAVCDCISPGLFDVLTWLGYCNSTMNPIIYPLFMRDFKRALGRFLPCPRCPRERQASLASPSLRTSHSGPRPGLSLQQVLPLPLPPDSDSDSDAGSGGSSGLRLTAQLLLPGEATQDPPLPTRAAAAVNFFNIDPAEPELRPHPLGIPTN
T3 sequence (P35367 whole entry): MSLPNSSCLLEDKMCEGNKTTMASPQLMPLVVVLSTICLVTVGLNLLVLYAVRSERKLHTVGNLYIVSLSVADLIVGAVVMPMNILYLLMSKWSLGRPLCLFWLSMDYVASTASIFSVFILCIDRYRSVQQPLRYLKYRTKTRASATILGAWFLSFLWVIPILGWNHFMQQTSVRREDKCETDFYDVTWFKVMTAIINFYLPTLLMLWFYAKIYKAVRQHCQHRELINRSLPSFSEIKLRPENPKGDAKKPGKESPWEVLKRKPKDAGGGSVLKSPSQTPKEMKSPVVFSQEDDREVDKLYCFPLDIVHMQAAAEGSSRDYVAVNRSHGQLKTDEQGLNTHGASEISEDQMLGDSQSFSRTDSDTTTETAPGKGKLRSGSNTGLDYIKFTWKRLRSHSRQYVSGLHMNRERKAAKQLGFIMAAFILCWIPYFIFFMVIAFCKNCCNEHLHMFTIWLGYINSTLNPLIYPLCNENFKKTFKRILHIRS
T4 sequence (P14416 whole entry): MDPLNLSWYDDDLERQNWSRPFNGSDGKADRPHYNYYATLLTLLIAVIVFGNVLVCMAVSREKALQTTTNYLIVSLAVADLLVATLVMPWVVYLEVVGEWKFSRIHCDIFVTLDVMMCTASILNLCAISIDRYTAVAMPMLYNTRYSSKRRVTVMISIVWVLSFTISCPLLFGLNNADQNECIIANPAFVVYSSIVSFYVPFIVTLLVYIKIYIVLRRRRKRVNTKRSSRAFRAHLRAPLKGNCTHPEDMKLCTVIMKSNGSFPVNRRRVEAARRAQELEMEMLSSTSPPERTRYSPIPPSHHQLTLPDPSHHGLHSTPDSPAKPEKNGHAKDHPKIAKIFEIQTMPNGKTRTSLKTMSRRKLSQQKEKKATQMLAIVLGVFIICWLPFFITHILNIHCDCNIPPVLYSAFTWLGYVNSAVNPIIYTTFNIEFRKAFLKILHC

Row | Structure (SMILES) | Kb (human 5-HT6 [1]) | Kb [2] | Kb (human H1 receptor) | Kb (human alpha1 receptor) | Ki (D2 receptor) | Ki (human 5-HT6 [3])
1 | CN1CCN(c2cc(-c3cscn3)cc(CC3CCOCC3)n2)CC1 [Example 4, 1-Methyl-4-[6-(oxan-4-ylmethyl)-4-(1,3-thiazol-4-yl)pyridin-2-yl]-piperazine] | 1.97 nM | 781 nM | > 5000 nM | 203 nM | > 10000 nM | 14.3 nM
2 | CN1CCN(c2cc(-c3ccccn3)cc(CC3CCOCC3)n2)CC1 [Example 3, 1-Methyl-4-[6-(oxan-4-ylmethyl)-4-(pyridin-2-yl)pyridin-2-yl]piperazine] | 81.8 nM | > 2000 nM | > 5000 nM | 83.8 nM | 1180 nM | 22.2 nM
3 | COc1ccc(-c2cc(CC3CCOCC3)nc(N3CCN(C)CC3)c2)c(F)c1 [Example 5, 1-[4-(2-Fluoro-4-methoxyphenyl)-6-(oxan-4-ylmethyl)pyridin-2-yl]-4-methylpiperazine] | 5.06 nM | > 2000 nM | 1230 nM | 171 nM | 1250 nM | 22.8 nM
4 | COc1ccc(-c2cc(C(C)C3CCOCC3)nc(N3CCN(C)CC3)c2)cc1 (stereo not drawn) [Example 7, 1-[4-(4-Methoxyphenyl)-6-[1-(oxan-4-yl)ethyl]pyridin-2-yl]-4-methyl-piperazine] | 0.01 nM | 340 nM | > 2000 nM | 29.3 nM | > 10000 nM | 12.2 nM
5 | COc1ccc(-c2cc(CC3CCOCC3)nc(N3CCC(N)CC3)c2)cc1 [Example 6, 1-[4-(4-Methoxyphenyl)-6-(oxan-4-ylmethyl)pyridin-2-yl]piperidin-4-amine] | > 1000 nM | > 3500 nM | > 1000 nM | > 2000 nM | > 10000 nM | 38.8 nM
6 | CN1CCN(c2cc(-c3ccc4ccccc4n3)cc(CC3CCOCC3)n2)CC1 [Example 2, 2-[2-(4-Methylpiperazin-1-yl)-6-(oxan-4-ylmethyl)pyridin-4-yl]quinoline] | 204 nM | > 3500 nM | 462 nM | > 2000 nM | 4100 nM | 39.6 nM
7 | COc1ccc(-c2cc(CC3CCOCC3)nc(N3CCNC(C)(C)C3)c2)cc1 [Example 8, 1-[4-(4-Methoxyphenyl)-6-(oxan-4-ylmethyl)pyridin-2-yl]-3,3-dimethylpiperazine] | 4.7 nM | > 3500 nM | 19.4 nM | 1600 nM | > 10000 nM | 36.1 nM
